Experimental data: patent US11981711B2, “Methods of treating spinal cord injury using a chondroitin sulfate proteoglycan (CSPG) reduction peptide (CRP) comprising a cell membrane penetrating domain, a CSPG binding domain, and a lysosome targeting domain” (The Cleveland Clinic Foundation, priority 2017, dated 2024)

How the values were obtained:
[1] = system: spinal cord injury (SCI); experiment: BBB open field locomotion test after T8 contusive SCI, SRP treatment; format: in vivo, rat; conditions: subcutaneous daily for one month beginning one day after SCI; vs scrambled peptide; entire observation period
Description: (§1) In this Example, the SRP has been applied in a preclinical rat model to test the efficacy of the treatment of spinal cord injury (SCI) in a manner similar to Example 1 above for CRP.
Animals were subcutaneously injected with SRP daily for one month beginning one day after SCI and assessed by the BBB open field locomotion test to evaluate hind limb motor function at the designated time points. […] Values represent mean±SEM.

[2] = system: spinal cord injury (SCI); experiment: Urodynamic analyses (CMG, EUS EMG) after T8 contusive SCI, SRP treatment; format: in vivo, rat; conditions: 3 months post-SCI
Experimental: as §1
Animals were treated daily with SRP for one month, beginning one day after SCI. Urodynamic analyses were conducted 3 months post-SCI. […] EUS EMG recording were conducted 3 months post-SCI.

[3] = system: arginase 1, iNOS, TNF-α; experiment: qRT-PCR of markers for pro- vs. anti-inflammatory macrophages in spinal cord segments caudal to injury; format: in vivo, rat; conditions: vs scrambled peptide
Experimental: Rats were treated once per day beginning one day after SCI with SRP or scrambled peptide (scr) and mRNA was then harvested and analyzed by qRT-PCR. […] C.

[4] = system: TBK1 and mitophagy adaptors; experiment: TBK1 and mitophagy adaptors in spinal cord after SCI, SRP treatment; format: in vivo, rat; conditions: vs scrambled peptide
Description: (A). Graphs represented mean±SEM of six samples per group for the % to GAPDH (B). *p<0.05, **p<0.01 and ***p<0.001 compared to scrambled peptide animals (two-tailed t test, n=3 per group).

[5] = molecular target: T1, SOCS3 (Rattus norvegicus, UniProt O88583); experiment: SOCS3 protein level in spinal cord after SCI, SRP treatment; format: in vivo; design: from tissue; host or cells: rat spinal cord (epicenter and caudal segments); conditions: 7 days after SCI; once per day beginning one day after SCI; vs scrambled peptide
T1 sequence (O88583 1-225): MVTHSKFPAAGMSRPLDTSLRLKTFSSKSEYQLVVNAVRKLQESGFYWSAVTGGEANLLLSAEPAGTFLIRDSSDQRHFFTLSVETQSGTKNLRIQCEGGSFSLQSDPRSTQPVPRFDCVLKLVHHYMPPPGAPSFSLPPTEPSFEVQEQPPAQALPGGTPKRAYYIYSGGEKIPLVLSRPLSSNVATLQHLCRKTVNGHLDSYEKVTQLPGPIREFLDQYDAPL
Description: as §1
(§2) Graphs represent mean±SEM of five samples per group for the ratios of SOCS3 to actin (B) and p-STAT3 to STAT3 (C). +p<0.05, ++p<0.01, and +++p<0.001 compared to normal animals, and *p<0.05 and ***p<0.001 compared to scrambled peptide animals (two way ANOVA with Bonferroni multiple analyses).

[6] = molecular target: T1, SOCS3; experiment: SOCS3 level in sciatic nerve after sciatic nerve transection, SRP treatment; format: in vivo; design: from tissue; host or cells: sciatic nerve; conditions: once per day for 4 consecutive days beginning immediately after transection; vs scrambled peptide
[7] = system: ED1+macrophages/microglia; experiment: Double immunolabeling of ED1 and GFAP in spinal cord after SCI, SRP treatment; format: in vivo, rat; conditions: three months post-SCI, vs scrambled peptide
Experimental: SRP treatment beginning one day after SCI was administered for 30 consecutive days and then spinal cords were harvested three months post-SCI for double immunolabeling of ED1 and GFAP.

[8] = system: STAT3; experiment: STAT3 activation (phospho-STAT3 Tyr705) in spinal cord after SCI, SRP treatment; format: in vivo, rat; conditions: 7 days after SCI; once per day beginning one day after SCI
Description: as §2

[9] = molecular target: T2, SOCS1 (Rattus norvegicus, UniProt Q9QX78); experiment: SOCS1 protein level in spinal cord after SCI, SRP treatment; format: in vivo; conditions: 7 days after SCI; once per day beginning one day after SCI
T2 construct: from tissue; host or cells: rat spinal cord
T2 sequence (Q9QX78 1-212): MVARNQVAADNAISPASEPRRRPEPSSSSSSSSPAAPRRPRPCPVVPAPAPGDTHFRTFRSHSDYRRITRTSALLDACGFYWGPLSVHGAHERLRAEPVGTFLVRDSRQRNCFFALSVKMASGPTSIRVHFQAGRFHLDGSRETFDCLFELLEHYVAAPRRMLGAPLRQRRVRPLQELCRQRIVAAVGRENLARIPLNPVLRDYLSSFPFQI

[10] = system: spinal cord injury (SCI); experiment: Locomotion (BBB 21-point score) and gait after chronic SCI, treatment from two months after SCI; format: in vivo, rat
Description: Basso, Beattie, and Bresnahan (BBB) 21-point scoring test is used as the locomotion assessment after SCI. SCI causes significant deficits on locomotion function as indicated by the significant drop of BBB scores from 21 of the normal rats. […] However, ISP treatment slightly decreases BBB scores from 11.667±0.211 (two months after SCI) to 11.00±0.577 (two months plus 42 days after SCI) (A).
(§3) In this Example, the CRP has been applied in a preclinical rat model to test the efficacy of the treatment of spinal cord injury (SCI). The injury was made at thoracic 8 level using contusive injury device. The contusive SCI is the most clinical relevance among all experimental SCI models. We have assessed both motor and bladder control as functional outcomes and analyzed anatomical evidences to support these findings. We also selected sub-acute phase (ONE-DAY after SCI) and chronic phase (TWO-MONTHs after SCI) to start our treatment.
(§4) The above were followed up with studies to evaluate the treatment effects of CRP in chronic SCI. The chronic SCI is not only way more challenge to be repaired but also is the clinical status of the majority of patients with SCI.

[11] = system: sciatic nerve injury; experiment: Gait after complete sciatic nerve transection with peripheral nerve allograft, CRP treatment; format: in vivo; conditions: 3 months after complete sciatic nerve transection, subcutaneous once per day, vs vehicle
Description: The representative 2D trajectory and improved kinematics parameters indicated CRP treated animals improved the stepping more toward to what the uninjured limb did, while compared to the vehicle treated animals. The CRP was delivered through subcutaneous injection near the injured site (once per day) staring immediately after surgery for 3 months.

[12] = system: perineuronal nets (PNN); experiment: PNN (WFA) in lumbar cord after chronic SCI; format: in vivo, rat
[13] = system: chondroitin sulfate proteoglycan (CSPG); experiment: CSPG expression around the spinal cord lesion after contusive SCI, treatment from one day after SCI; format: in vivo, rat
Description: as §3
(§5) Furthermore CRP can efficiently improve locomotion and bladder electromyography (EMG) activities and voiding patterns after SCI.

[14] = system: spinal cord injury (SCI); experiment: Bladder function after chronic SCI, CRP from two months after SCI; format: in vivo, rat
Description: as §3, §4
The box area indicates the bursting activity.

[15] = system: serotonin (5-HT) fibers and traced fibers from brain stem and red nuclei; experiment: Axon sprouting below the lesion after SCI, sub-acute CRP treatment; format: in vivo, rat
Description: as §5
In particular, 5HT immunoreactivity in lumbosacral level after SCI. […] (G, H) Representative images with double staining of […]

[16] = system: spinal cord injury (SCI); experiment: Locomotion and gait after T8 contusive SCI, sub-acute CRP treatment; format: in vivo, rat
Description: as §3, §5
In particular, FIG. 26A-G show Kinematics assessment in SCI rats. (A) Representative total of hindlimb movement trajectories for spinal-intact, SCI+scrambled peptide (scr) and SCI+CRP groups at 3 months post-SCI. […] N=6 to 8 per group.

[17] = system: Neu7-produced CSPGs; experiment: Reduction of CSPG produced by Neu7 cells; format: cell-based
[18] = system: perineuronal nets (PNN); experiment: Perineuronal nets (WFA staining) in lumbosacral spinal cord after T8 SCI; format: in vivo, rat; conditions: 3 months post SCI; vs scrambled peptide
Description: (A, B) Representative L4 spinal cord transverse images show CRP treatment reduces overall PNN in grey matter of lumbar spinal cord neurons at 3 months post SCI. Notice areas with clear decreased WFA staining of the PNN (asterisk). […] (E, F) Representative higher power immunostaining images of the ventral horn of
transverse L4 sections show the strong PNN intensity (arrow) surrounding the NeuN+ cells in scr treated SCI rats (E), while CRP treatment reduces them (F). *, P<0.05 when compared to the scr treatment. N=8 per group.

[19] = system: spinal cord injury (SCI); experiment: Bladder function (voiding, CMG, EUS EMG) after T8 contusive SCI, sub-acute CRP treatment; format: in vivo, rat
Description: as §3, §5
(A) Representative cystometrograms (CMG) with micturition (voiding) events (indicated by asterisk) for spinal-intact, SCI+scrambled peptide (scr) and SCI+CRP groups at 3 months post-SCI. […] N=6 to 8 per group.
(A) Representative cystometrograms (CMG) with external urethral sphincter (EUS) electromyogram (EMG) recordings at micturition events for spinal-intact, SCI+scrambled peptide (scr) and SCI+CRP groups at 3 months post-SCI. […] The red dot indicates bursting activity. **, P<0.01; ***, P<0.001 when compared to the spinal-intact group; +, P<0.05, ++, P<0.01; +++, P<0.001 when compared to the scr group. N=6 to 8 per group.

[20] = system: 5HT fibers; experiment: 5HT fiber sprouting in lumbar cord after chronic SCI; format: in vivo, rat; conditions: vs scrambled peptide
[21] = once per day beginning one day after SCI
[22] = 5 months post SCI vs two months post SCI (beginning of treatment)
[23] = 3 months post-SCI, T8 SCI, vs scrambled peptide

YGRKKRRQRRR-VQpYSTVVHS-KFERQKILDQRFFE [SRP]
hind limb locomotion (BBB) [1]: significant improvement in hind limb locomotion
bladder hyperactivity (CMG) ([2]; daily for one month beginning one day after SCI): significantly reduced bladder hyperactivity
EUS EMG bursting activity during the void period ([2]; vs scrambled peptide): improvement in bursting activity
non-voiding contraction amplitude ([2]; vs scrambled peptide): significantly reduced
number of non-voiding contractions ([2]; vs scrambled peptide): significantly reduced
residual volume ([2]; vs scrambled peptide): significantly reduced
arginase 1 expression (mRNA) ([3]; 7 and 14 days post-SCI): increased
iNOS expression (mRNA) ([3]; 7 and 14 days post-SCI): decreased
TNF-α expression (mRNA) ([3]; 7 days post-SCI): decreased
TBK1 protein level [4, 21]: significantly increased
optineurin protein level [4, 21]: significantly increased
phospho-TBK1 Ser172 (p-TBK1) [4]: significant activation of TBK1 and p62
phosphor-p62 Ser403 (p-p62) [4]: significant activation of TBK1 and p62
SCI-upregulated SOCS3 (ratio of SOCS3 to actin) [5]: significantly reduced
sciatic nerve transection-upregulated SOCS3 [6]: significantly reduced
SCI-increased ED1+macrophages/microglia ([7]; treatment for 30 consecutive days beginning one day after SCI): blocked SCI-induced upregulation of ED1+macrophages
GFAP+tissues surrounding the lesion epicenter [7]: preserved more GFAP+tissues
phospho-STAT3 Tyr705 (p-STAT3 to STAT3) [8]: significant activation of STAT3
SOCS1 level [9]: not significantly altered

YGRKKRRQRRR-PKPRVTWNKKGKKVNSQRF-KFERQKILDQRFFE (NYGRKKRRQRRRPKPRVTWNKKGKKVNSQRFKFERQKILDQRFFEC) [CRP]
BBB locomotion scale [10, 22]: significant increases in BBB locomotion scale
stepping kinematic of both hindlimbs (2D trajectory patterns) [10, 22]: improved stepping kinematic of both hindlimbs
average increases in BBB scores ([10]; by two months plus 42 days after SCI, treatment starting two months after SCI): 3.0±0.365
BBB score ([10]; two months after SCI (start of treatment)): 11.75±0.164
BBB score ([10]; two months plus 42 days after SCI, treatment starting two months after contusive SCI): 14.33±0.211
stepping performance of hindlimbs [11]: improved the stepping performance of hindlimbs
PNN (WFA+) in lumbar cord [12]: robustly decreased PNN
CSPG ([13]; three months after SCI, sub-acute treatment): significantly decreased CSPG
CSPG in lesion epicenter and adjacent tissue ([13]; two weeks after contusive SCI, treatment starting one day after SCI, vs vehicle): significantly decreases SCI-induced increases in CSPG
hyperactive bladder (CMG) ([14]; 3 months of treatment starting at 2 months post SCI): reduce hyperactive bladder
EUS bursting activity during the void period ([14]; chronic SCI, vs scrambled peptide): improve EUS bursting activity
voiding patterns ([14]; subcutaneous injection beginning two-month after SCI): significantly improves
nerve sprouting below lesion from neuron in brain stem and red nucleic ([15]; after SCI, sub-acute treatment): enhances nerve sprouting below lesion
sprouting of serotonin (5-HT) fibers below lesion ([15]; after SCI, sub-acute treatment): enhances sprouting of serotonin (5-HT) fibers
immunoreactivity of 5HT fibers at L4 and L6/S1 levels ([15]; severe contusive SCI, vs scrambled peptide): significantly increases immunoreactivity of 5HT fibers
gait pattern parameters (kinematics, hindlimb trajectories) ([16]; 3 months post-SCI, vs scrambled peptide): significantly improved several parameters of gait pattern
motor function recovery ([16]; out to 91 days post-contusion, sub-acute treatment): significantly promotes motor function recovery
dosage dependence of CSPG reduction ([17]; Neu7 cells): dosage response
CSPG produced by Neu7 cells ([17]; compared with ChABC): significantly reduces CSPG produced by Neu7 cells
PNN at L4 and L6/S1 levels [18]: significant reduction of PNN
EUS bursting activity (EUS EMG during the void) [19, 23]: improves EUS bursting activity
bladder capacity (CMG) [19, 23]: smaller bladder capacity
hyperactive bladder (CMG) [19, 23]: reduces hyperactive bladder
voiding pressure (CMG) [19, 23]: lower voiding pressure
number and amplitude of non-voiding contraction (overactive bladder) ([19]; after SCI, sub-acute treatment): reduction of both the number and amplitude of non-voiding contraction
residual volume and volume per void ([19]; after SCI, sub-acute treatment): reducing residual volume and volume per void toward normal condition
voiding patterns ([19]; after SCI, sub-acute treatment): improves voiding patterns
external urethral sphincter (EUS) activity: number of burst, EMG amplitude, coordination with detrusor contraction ([19]; during the void period, sub-acute treatment): improving external urethral sphincter (EUS) activity
5HT+ nerve fibers sprouting in lumbosacral level [20]: enhance 5HT+ nerve fibers sprouting
